For assay [1], the target named is T1, myeloperoxidase (Homo sapiens (Human), UniProt P05164). As to the kind of experiment: MPO Peroxidation Assay (Amplex Red Assay). The note with it: potency range class. Type of assay: biochemical. On the procedure:
MPO Peroxidation Assay (Amplex Red Assay)
MPO peroxidation activity was measured in 100 mM KPi (pH 7.4) by utilizing the non-fluorescent reagent Amplex Red (Invitrogen Cat. #A12222) which can be oxidized to the highly fluorescent resorufin. Amplex Red is oxidized by the peroxidase action of MPO to resorufin. Reactions were carried out in 50 μL total volume by adding a 25 μL mixture of 200 pM myeloperoxidase and 40 nM H2O2(Sigma #349887) to 100 nL inhibitor in 100% DMSO in a 384 well Perkin Elmer Optiplate. Enzyme and compound were preincubated for ten minutes at rt.
After the ten minute preincubation, 25 μL of an Amplex Red mixture containing 200 μM Amplex Red and 10 mM H2O2 was added to the plate. Kinetic determinations were carried out immediately on a Perkin Elmer Envision (15 minute kinetic read, Ex: 535 nm, Em: 590 nm).
IC50 values were calculated by determining the slope of the linear portion of the kinetic trace (180-540 secs), and using that calculated slope to determine % inhibition occurring at each concentration of inhibitor using the following equation:
(§1) [formula] where A=minimal Y value (activity level of inhibited sample), B=maximal Y value (activity level of uninhibited sample), C=Log IC50, D=Hill Slope, x=concentration of inhibitor. MPO Chlorination Assay (APF Assay)

In assay [2] the target is T1, myeloperoxidase. As to the kind of experiment: MPO Chlorination Assay (APF Assay). It is filed as biochemical. The note with it: potency range class. The method, then:
as §1
MPO chlorination activity was measured in 100 mM KPi (pH 7.4) by utilizing the non-fluorescent reagent Aminophenyl fluorescein (APF, Invitrogen Cat. #A36003). APF is cleaved by (—OCl) to yield the fluorescent compound fluorescein. Reactions were carried out in 50 μL total volume by adding a 25 μL mixture of 200 pM myeloperoxidase and 120 mM NaCl to 100 nL inhibitor in 100% DMSO in a 384 well, non-binding surface clear bottom plate (Corning #3655). Enzyme, inhibitor, and chloride were preincubated for ten minutes at rt.
After the ten minute preincubation, 25 μL of an APF mixture containing […], 120 mM NaCl and 10 μM H2O2 was added to the plate using the internal dispensing system of a Hammatsu FDSS 6000. Kinetic determinations were carried out immediately on the FDSS 6000 (3 minute kinetic read, 1 read every second, ex: 485 nm, em: 535 nm). IC50 values for inhibitors were calculated by taking the slope of the linear portion of the kinetic measurement (20 seconds to ˜80-120 secs). […]
[formula] where A=minimal Y value (activity level of inhibited sample), B=maximal Y value (activity level of uninhibited sample), C=Log IC50, D=Hill Slope, x=concentration of inhibitor.

The source of these data is patent US11059818B2, “Triazolopyridine inhibitors of myeloperoxidase” (BRISTOL-MYERS SQUIBB COMPANY, priority 2016, dated 2021).

T1 sequence (P05164 49-745): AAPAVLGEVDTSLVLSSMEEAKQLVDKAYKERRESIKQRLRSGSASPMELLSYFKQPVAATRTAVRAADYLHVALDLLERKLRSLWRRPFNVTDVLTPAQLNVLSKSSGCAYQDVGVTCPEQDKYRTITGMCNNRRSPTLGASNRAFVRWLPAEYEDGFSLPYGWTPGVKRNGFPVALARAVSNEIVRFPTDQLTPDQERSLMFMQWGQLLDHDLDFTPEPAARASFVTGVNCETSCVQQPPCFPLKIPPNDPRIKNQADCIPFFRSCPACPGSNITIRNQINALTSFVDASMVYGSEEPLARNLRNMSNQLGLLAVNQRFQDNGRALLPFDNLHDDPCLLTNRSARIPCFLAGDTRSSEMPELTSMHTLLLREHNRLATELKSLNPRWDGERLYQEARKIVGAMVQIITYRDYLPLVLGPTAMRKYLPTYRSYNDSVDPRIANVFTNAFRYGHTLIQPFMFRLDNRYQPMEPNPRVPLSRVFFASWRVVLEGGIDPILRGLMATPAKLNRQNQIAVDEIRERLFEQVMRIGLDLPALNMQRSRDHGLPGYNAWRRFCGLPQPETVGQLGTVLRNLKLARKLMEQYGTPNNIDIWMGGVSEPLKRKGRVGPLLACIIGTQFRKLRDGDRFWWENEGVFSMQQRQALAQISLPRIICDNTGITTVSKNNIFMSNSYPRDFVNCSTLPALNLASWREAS

For the compound `Nc1cc(C(CCN[C@H]2CC[C@H](c3ccccc3)CC2)c2cc[nH]c(=O)c2)c2nn[nH]c2n1` (stereo partly drawn) [Example 35, 4-(1-{5-Amino-3H-[1,2,3]triazolo[4,5-b]pyridin-7-yl}-3-{[trans-4-phenylcyclohexyl]amino}propyl)-1,2-dihydropyridin-2-one], the IC50 on myeloperoxidase [1] was in the range of 101 to 999 nM; against myeloperoxidase [2], 1 to 100 nM.

In the case of `Nc1cc(C(CCNC23CCC(c4ccccc4)(CC2)[C@H](O)C3)c2cnn(Cc3cccc(O)c3)c2)c2nn[nH]c2n1` (some centres unmarked) [Example 51], the IC50 at myeloperoxidase [1] and at myeloperoxidase [2] was 1 to 100 nM each time.

Consider `Nc1cc(C(CCNC2CCC(c3ccccc3)CC2)c2cnn(Cc3ccccc3)c2)c2nn[nH]c2n1` (centres unmarked) [Example 16, 7-[1-(1-Benzyl-1H-pyrazol-4-yl)-3-[(4-phenylcyclohexyl)amino]propyl]-3H-[1,2,3]triazolo[4,5-b]pyridin-5-amine], for which the figures for the IC50 at myeloperoxidase [1] and on myeloperoxidase [2] were 101 to 999 nM and 1 to 100 nM, respectively.

In the case of `Nc1cc(C(CCNC2CCc3ccccc32)c2cnn(Cc3ccccc3)c2)c2nn[nH]c2n1` (centres unmarked) [Example 17, 7-[1-(1-Benzyl-1H-pyrazol-4-yl)-3-[(2,3-dihydro-1H-inden-1-yl)amino]propyl]-3H-[1,2,3]triazolo[4,5-b]pyridin-5-amine], the IC50 against myeloperoxidase [1] was 101 to 999 nM; against myeloperoxidase [2], 1 to 100 nM.

For `Nc1cc(C(CCN[C@H]2CC[C@H](c3ccccc3)CC2)c2cnn(C3CCC3(F)F)c2)c2nn[nH]c2n1` (stereo partly drawn) [Example 28, 7-{1-[1-(2,2-Difluorocyclobutyl)-1H-pyrazol-4-yl]-3-{[trans-4-phenylcyclohexyl]amino}propyl}-3H-[1,2,3]triazolo[4,5-b]pyridin-5-amine], the values for the 50% inhibitory concentration (IC50) against myeloperoxidase [1] and against myeloperoxidase [2] were 101 to 999 nM and 1 to 100 nM, respectively.

As for `Nc1cc(C(CCN2C[C@H](Cc3ccccc3)[C@@H](O)C2)c2cnn(Cc3cccc(O)c3)c2)c2nn[nH]c2n1` (some centres unmarked) [Example 43], the figures for the IC50 on myeloperoxidase [1] and against myeloperoxidase [2] were 1000 to 10000 nM and 1 to 100 nM, respectively.

As for `Nc1cc(C(CCN[C@H]2CC[C@H](c3ccccc3)CC2)c2cnn(Cc3ccccc3)c2)c2nn[nH]c2n1` (some centres unmarked) [Example 18, 7-[1-(1-Benzyl-1H-pyrazol-4-yl)-3-{[(1r,4r)-4-phenylcyclohexyl]-amino}propyl]-3H-[1,2,3]triazolo 4,5-b pyridin-5-amine], the IC50 on myeloperoxidase [1] and against myeloperoxidase [2] was 1 to 100 nM throughout.

For the compound `CCCC(c1cnn(Cc2ccc3c(c2)CCNC3)c1)c1cc(N)nc2[nH]nnc12` (centres unmarked) [Example 2, 7-{1-[1-(1,2,3,4-tetrahydroisoquinolin-6-ylmethyl)-1H-pyrazol-4-yl]butyl}-3H-[1,2,3]triazolo[4,5-b]pyridin-5-amine], the IC50 against myeloperoxidase [1] and at myeloperoxidase [2] was 101 to 999 nM in each case.

As to `Cn1cc(C(CCNCc2ccccc2)c2cc(N)nc3[nH]nnc23)cn1` (centres unmarked) [Example 15, 7-[3-(Benzylamino)-1-(1-methyl-1H-pyrazol-4-yl)propyl]-3H-[1,2,3]triazolo[4,5-b]pyridin-5-amine], the IC50 against myeloperoxidase [1] lay within 101 to 999 nM; on myeloperoxidase [2] it was 1000 to 10000 nM.

Consider `Nc1cc(C(CCN[C@H]2CC[C@H](c3ccccc3)CC2)c2cnn(Cc3cccc(OC(F)F)c3)c2)c2nn[nH]c2n1` (stereo partly drawn) [Example 25, 7-[1-(1-{[3-(Difluoromethoxy)phenyl]methyl}-1H-pyrazol-4-yl)-3-{[trans-4-phenylcyclohexyl]amino}propyl]-3H-[1,2,3]triazolo[4,5-b]pyridin-5-amine], for which the IC50 lay within 101 to 999 nM at myeloperoxidase [1] and 1 to 100 nM on myeloperoxidase [2].

On to `Nc1cc(C(CCNC23CCC(c4ccccc4)(CC2)[C@@H](O)C3)c2cnn(Cc3cccc(O)c3)c2)c2nn[nH]c2n1` (some centres unmarked) [Example 52], for which the IC50 against myeloperoxidase [1] and against myeloperoxidase [2] was 1 to 100 nM in each case.

`Nc1cc(C(CCN[C@H]2CC[C@H](c3ccccc3)CC2)c2cnn(Cc3cc(F)cc(F)c3)c2)c2nn[nH]c2n1` (stereo partly drawn) [Example 26, 7-(1-{1-[(3,5-Difluorophenyl)methyl]-1H-pyrazol-4-yl}-3-{[trans-4-phenylcyclohexyl]amino}propyl)-3H-[1,2,3]triazolo[4,5-b]pyridin-5-amine]: the IC50 was 101 to 999 nM at myeloperoxidase [1] and 1 to 100 nM on myeloperoxidase [2].

As for `Nc1cc(C(CCO)c2cnn(Cc3cccc(OC4CCC(N)C4)c3)c2)c2nn[nH]c2n1` (centres unmarked) [Example 55], the IC50 against myeloperoxidase [1] and on myeloperoxidase [2] was 101 to 999 nM throughout.

For the compound `Nc1cc(C(CCCC2CCc3ccccc32)c2cnn(Cc3ccc4c(c3)CCNC4)c2)c2nn[nH]c2n1` (centres unmarked) [Example 8, 7-[4-(2,3-dihydro-1H-inden-1-yl)-1-[1-(1,2,3,4-tetrahydroisoquinolin-6-ylmethyl)-1H-pyrazol-4-yl]butyl]-3H-[1,2,3]triazolo[4,5-b]pyridin-5-amine], the IC50 was 1000 to 10000 nM at myeloperoxidase [1] and 101 to 999 nM on myeloperoxidase [2].

For the compound `Nc1cc(C(CCN[C@H]2CC[C@H](c3ccccc3)CC2)c2cnn(Cc3cccc4ccccc34)c2)c2nn[nH]c2n1` (stereo partly drawn) [Example 24, 7-{1-[1-(Naphthalen-1-ylmethyl)-1H-pyrazol-4-yl]-3-{[trans-4-phenylcyclohexyl]amino}propyl}-3H-[1,2,3]triazolo[4,5-b]pyridin-5-amine], the IC50 against myeloperoxidase [1] lay in the range of 101 to 999 nM; on myeloperoxidase [2], 1 to 100 nM.

`Nc1cc(C(CCN[C@H]2CC[C@H](c3ccccc3)CC2)c2cnn(C3CC(F)C3(F)F)c2)c2nn[nH]c2n1` (stereo partly drawn) [Example 29, 7-(3-{[trans-4-phenylcyclohexyl]amino}-1-[1-(2,2,3-trifluorocyclobutyl)-1H-pyrazol-4-yl]propyl)-3H-[1,2,3]triazolo[4,5-b]pyridin-5-amine]: the IC50 against myeloperoxidase [1] fell in the range of 101 to 999 nM; against myeloperoxidase [2], 1 to 100 nM.

In the case of `Nc1cc(C(CCN[C@H]2CC[C@H](c3ccccc3)CC2)c2cnn(Cc3cccc(C(F)(F)F)c3)c2)c2nn[nH]c2n1` (stereo partly drawn) [Example 31, 7-(3-{[trans-4-Phenylcyclohexyl]amino}-1-(1-{[3-(trifluoromethyl)phenyl]methyl}-1H-pyrazol-4-yl)propyl)-3H-[1,2,3]triazolo[4,5-b]pyridin-5-amine], the values for the IC50 on myeloperoxidase [1] and against myeloperoxidase [2] were 101 to 999 nM and 1 to 100 nM, respectively.

As for `Nc1cc(C(CCN[C@H]2C[C@H](Cc3ccccc3)[C@@H](O)C2)c2cnn(CCc3cccc(O)c3)c2)c2nn[nH]c2n1` (some centres unmarked) [Example 54], the results for the IC50 against myeloperoxidase [1] and at myeloperoxidase [2] were 1000 to 10000 nM and 101 to 999 nM, respectively.

With `Nc1cc(C(CCOc2ccccc2)c2cnn(Cc3ccc4c(c3)CCNC4)c2)c2nn[nH]c2n1` (centres unmarked) [Example 11, 7-{3-Phenoxy-1-[1-(1,2,3,4-tetrahydroisoquinolin-6-ylmethyl)-1H-pyrazol-4-yl]propyl}-3H-[1,2,3]triazolo[4,5-b]pyridin-5-amine], the IC50 at myeloperoxidase [1] and against myeloperoxidase [2] was 101 to 999 nM throughout.

Consider `Nc1cc(C(CCCc2cccc3ccccc23)c2cnn(Cc3ccc4c(c3)CCNC4)c2)c2nn[nH]c2n1` (centres unmarked) [Example 9, 7-[4-(Naphthalen-1-yl)-1-[1-(1,2,3,4-tetrahydroisoquinolin-6-ylmethyl)-1H-pyrazol-4-yl]butyl]-3H-[1,2,3]triazolo[4,5-b]pyridin-5-amine], for which the values for the IC50 against myeloperoxidase [1] and against myeloperoxidase [2] were 1000 to 10000 nM and 1 to 100 nM, respectively.

Consider `Nc1cc(C(CCNC23CCC(c4ccccc4)(CC2)CC3)c2cnn(CCc3cccc(O)c3)c2)c2nn[nH]c2n1` (centres unmarked) [Example 50], for which the IC50 fell in the range of 101 to 999 nM against myeloperoxidase [1] and 1 to 100 nM on myeloperoxidase [2].

With `CCC(c1cnn(Cc2cccc(O)c2)c1)c1cc(N)nc2[nH]nnc12` (centres unmarked) [Example 47], the IC50 at myeloperoxidase [1] and on myeloperoxidase [2] was 101 to 999 nM throughout.

As for `Nc1cc(C(CCN[C@H]2CC[C@H](c3ccccc3)CC2)c2ccc(F)nc2)c2nn[nH]c2n1` (some centres unmarked) [Example 45], the 50% inhibitory concentration (IC50) on myeloperoxidase [1] and against myeloperoxidase [2] was 101 to 999 nM each time.

For the compound `Nc1cc(C(CCN[C@H]2CC[C@H](c3ccccc3)CC2)c2cnn(C3CC3)c2)c2nn[nH]c2n1` (stereo partly drawn) [Example 32, 7-[1-(1-Cyclopropyl-1H-pyrazol-4-yl)-3-{[trans-4-phenylcyclohexyl]amino}propyl]-3H-[1,2,3]triazolo[4,5-b]pyridin-5-amine], the IC50 against myeloperoxidase [1] lay within 1000 to 10000 nM; against myeloperoxidase [2] it was 101 to 999 nM.

For `Nc1cc(C(CCC2CCOCC2)c2cnn(Cc3ccc4c(c3)CCNC4)c2)c2nn[nH]c2n1` (centres unmarked) [Example 10, 7-[3-(Oxan-4-yl)-1-[1-(1,2,3,4-tetrahydroisoquinolin-6-ylmethyl)-1H-pyrazol-4-yl]propyl]-3H-[1,2,3]triazolo[4,5-b]pyridin-5-amine], the IC50 was 101 to 999 nM against myeloperoxidase [1] and 1000 to 10000 nM against myeloperoxidase [2].
